This is an account of results in patent US12264163B2, “Compounds and methods for treating fibrotic pathologies” (Mayo Foundation for Medical Education and Research, priority 2019, dated 2025).

For test [1], the system named is bile duct ligation (BDL)-mediated fibrosis. Nature of the test: Bile duct ligation model of liver fibrosis. The settings on record: BDL mice, DHX 5 mg/kg i.p. daily Day 7 for 14 days. It is filed as in vivo, mouse. The method, then:
Bile Duct Ligation: BDL was performed as previously described. Briefly, 8-10 weak old female C57BL/6N underwent either BDL or sham surgery. Mice were anesthetized on Day 0 following IACUC protocol, and the bile duct was ligated using sterile 3/0 silk ligatures. Sham surgery was performed by passing a silk ligature under the bile duct. Starting on Day 7, DHX (5 mg/kg) or vehicle control was administered everyday intraperitoneally (i.p.) for 14 days. Following the final DHX treatment, mice were sacrificed and the livers harvested for analysis of fibrosis.
Histological Scoring: Five μm thick sections were cut from Paraffin embedded lung tissues, and the sections were stained either with hematoxylin and eosin (H&E) or with Masson's Trichrome stain kit (Abcam). […] The severity of interstitial and peribronchiolar lung immature and mature fibrosis was estimated on a numerical scale according to Ashcroft et al. For scoring purposes, all H&E stained slides were systematically scanned at 100× magnification and successive 100× fields were scored. […] The predominant score for each field was recorded. The mean of all scores was calculated for each case. Liver trichrome stained sections were computationally measured using Image J software. […]
Hydroxyproline: Hydroxyproline content was measured using a hydroxyproline assay kit (Biovision) according to the manufacture's instruction with slight modification. […]

For test [2], the system named is bleomycin-induced pulmonary fibrosis. Nature of the test: Bleomycin mouse model of pulmonary fibrosis. Conditions: bleomycin mice. It is filed as in vivo. The method, then: Bleomycin Mouse Study: In the initial in vivo siRNA study (FIGS. 22 and 23A-23C), adult male age-matched C57BL/6N mice at 6-8 weeks of age were purchased from the National Cancer Institute (NCI)-Frederick Mouse Repository (Frederick, MD, USA). All experiments were performed in accordance with National Institute of Health guidelines and protocols approved by the Massachusetts General Hospital Subcommittee on Research Animal Care, and maintained all mice in a specific pathogen-free (SPF) environment certified by the American Association for Accreditation of Laboratory Animal Care (AAALAC). 6-8 weeks old mice were anesthetized with ketamine and xylazine before exposure of the trachea. Lung fibrosis was induced by intratracheal injection of bleomycin (50 μl at 1.2 U/kg) or phosphate buffered saline (PBS; as control) on day 0. After 14 days Small interfering RNA (siRNA) duplexes targeting mouse Yap (L-046247-01-0005) or Taz (L-058248-01-0005) mRNA (Dharmacon) or nontargeting control siRNA were administered in vivo by intratracheal instillation at a single dose of 25 μg (each siRNA) per mouse. On day 21 Mice were sacrificed and lungs harvested for collagen determination and biochemical analyses. To obtain BAL samples for total protein concentration determination, lungs were lavaged with six 0.5-mL aliquots of PBS. BAL samples were centrifuged at 3,000 g for 20 min at 4° C. and transferred the supernatants to siliconized low-binding Eppendorf tubes (PGC Scientifics) for subsequent analysis. Total protein concentration of the BAL fluid was determined by BCA Protein Assay Kit (Pierce). In the dihydrexidine treatment studies (FIG. 17-21), 8 week old female C57/BL6 mice were purchased from Charles River Laboratories. Mouse lung fibrosis was induced with bleomycin (BLEO; Fresenius Kabi) delivered intratracheally (3 U/kg) to the lungs using MicroSprayer® Aerosolizer (Penn-Century). The Sham mice received sterile 0.9% saline instead using identical methods. Mice were weighed every 24 hrs, and both groups were then randomized at day 10 into DHX and Control treatment groups, matching for the degree of weight change. DHX (5 mg/kg) was administered everyday intranasally (i.n.) dissolved in surfactant (infasurf) which has previously shown to aid in spreading to pulmonary aveoli for 14 days. The control groups of mice received the equivalent vehicle dose of surfactant. Following the final DHX treatment, mice were sacrificed and the right lungs were inflated with 4% paraformaldehyde (PFA) and further incubated in 4% PFA for 24 hours prior processing for paraffin embedding. The left lobe of the lung was snap frozen in liquid nitrogen for RNA isolation and hydroxyproline assay. Experimental procedures were approved by the Mayo Clinic Institutional Animal Care and Use Committee and the animals were handled in accordance with their guidelines.
Histological Scoring: Five μm thick sections were cut from Paraffin embedded lung tissues, and the sections were stained either with hematoxylin and eosin (H&E) or with Masson's Trichrome stain kit (Abcam). All H&E-stained slides and trichrome-stained slides were reviewed in a blinded fashion by a thoracic pathologist. The severity of interstitial and peribronchiolar lung immature and mature fibrosis was estimated on a numerical scale according to Ashcroft et al. For scoring purposes, all H&E stained slides were systematically scanned at 100× magnification and successive 100× fields were scored. Scoring was based on the following scale: 0 (no fibrosis), 1 (minimal interstitial and/or peribronchiolar thickening due to fibrosis), 3 (moderate thickening without obvious architectural distortion), 5 (increased fibrosis with formation of fibrous bands and/or small masses), 7 (severe architectural distortion with large areas of fibrosis and areas of honeycomb changes), and 8 (total fibrous obliteration of the field). The predominant score for each field was recorded. The mean of all scores was calculated for each case. […]

Structures are written as SMILES.

Regarding `Oc1cc2c(cc1O)[C@H]1c3ccccc3CN[C@@H]1CC2` (racemic) [Dihydrexidine], in test [1], the “collagen deposition (hydroxyproline)” value is “trend toward reduced collagen deposition” and the “histological fibrosis (trichrome)” value is listed as “significantly improved histological fibrosis”. Besides, in test [2] (DHX 5 mg/kg i.n. Day 10-24), the “lung remodeling by histology (Ashcroft, blinded pathologist)” value is “nearly completely protected from lung remodeling”; the “lung transcript levels of Acta2, Ctgf, Fn1, Col1a1, Col1a2, Yap and Taz” value is on record as “significantly attenuated”; the “staining for YAP and TAZ in the lungs” value is listed as “attenuated”; the “total collagen in the lungs (hydroxyproline)” value is “nearly identical to sham treated mice”. Moreover, the weight change result in test [2] (DHX 5 mg/kg once daily i.n. from Day 10, vs Bleo control) was “lost significantly less weight”. For the same compound, the “expression of YAP/TAZ target genes in flow-sorted lung cells” value in test [2] (two doses of DHX on day 10, lungs collected day 11) was “selectively blocks expression of YAP/TAZ target genes in lung fibroblasts”.
